Results taken from ChEMBL document CHEMBL1201862, “PubChem BioAssay data set” (2004).
Calls of active or inactive are those of the source.

What was measured:
[1] = M. tuberculosis growth inhibition, HTS (AID 449762); assay type: functional
[2] = Late stage counterscreen results from the probe development effort to identify activators of signal transducer and activator of transcription 1 (STAT1): luminescence-based cell-based dose response assay to identify cytotoxic compounds.; assay type: functional
[3] = biological target: Diphosphomevalonate decarboxylase (Streptococcus pneumoniae serotype 2 (strain D39 / NCTC 7466), UniProt Q9FD53); assay: diphosphomevalonate decarboxylase inhibitor confirmation – biochemical, cuvette format, coupled NADH fluorescence (AID 1028); assay type: functional
Diphosphomevalonate decarboxylase, sequence (Q9FD53 whole entry): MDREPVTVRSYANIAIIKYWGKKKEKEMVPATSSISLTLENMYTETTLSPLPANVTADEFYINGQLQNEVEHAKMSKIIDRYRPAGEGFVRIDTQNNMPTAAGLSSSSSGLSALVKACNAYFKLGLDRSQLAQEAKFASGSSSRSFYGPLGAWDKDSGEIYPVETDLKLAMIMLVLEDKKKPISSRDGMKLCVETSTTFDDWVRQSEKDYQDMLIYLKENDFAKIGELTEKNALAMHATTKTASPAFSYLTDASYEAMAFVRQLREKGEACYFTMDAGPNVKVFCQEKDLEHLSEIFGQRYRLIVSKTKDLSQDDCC

[4] = biological target: Cytochrome P450 2C19 (Homo sapiens, UniProt P33261); assay: Cytochrome panel assay with activity outcomes. Panel member name: p450-cyp2c19 Compounds with AC50 equal or less than 10 uM are considered active; assay type: functional; details: read-out: AC50
Cytochrome P450 2C19, sequence (P33261 whole entry): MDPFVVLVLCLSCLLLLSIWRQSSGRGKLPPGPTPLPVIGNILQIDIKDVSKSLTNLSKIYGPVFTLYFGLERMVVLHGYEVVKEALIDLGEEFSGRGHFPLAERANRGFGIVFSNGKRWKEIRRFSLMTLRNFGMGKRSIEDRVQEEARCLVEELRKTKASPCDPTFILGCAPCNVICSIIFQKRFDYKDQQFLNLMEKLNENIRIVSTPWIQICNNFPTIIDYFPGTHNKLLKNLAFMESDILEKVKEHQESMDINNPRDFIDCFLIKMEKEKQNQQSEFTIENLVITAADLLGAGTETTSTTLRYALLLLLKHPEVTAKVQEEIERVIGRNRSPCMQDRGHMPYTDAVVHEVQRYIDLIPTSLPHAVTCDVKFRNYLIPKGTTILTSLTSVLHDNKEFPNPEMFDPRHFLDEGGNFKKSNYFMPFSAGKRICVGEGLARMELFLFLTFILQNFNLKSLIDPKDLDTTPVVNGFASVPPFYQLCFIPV

[5] = biological target: Cytochrome P450 3A4 (Homo sapiens, UniProt P08684);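 note: CYP3A4 tested as one member of a cytochrome P450 panel screen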
Cytochrome P450 3A4, sequence (P08684 whole entry): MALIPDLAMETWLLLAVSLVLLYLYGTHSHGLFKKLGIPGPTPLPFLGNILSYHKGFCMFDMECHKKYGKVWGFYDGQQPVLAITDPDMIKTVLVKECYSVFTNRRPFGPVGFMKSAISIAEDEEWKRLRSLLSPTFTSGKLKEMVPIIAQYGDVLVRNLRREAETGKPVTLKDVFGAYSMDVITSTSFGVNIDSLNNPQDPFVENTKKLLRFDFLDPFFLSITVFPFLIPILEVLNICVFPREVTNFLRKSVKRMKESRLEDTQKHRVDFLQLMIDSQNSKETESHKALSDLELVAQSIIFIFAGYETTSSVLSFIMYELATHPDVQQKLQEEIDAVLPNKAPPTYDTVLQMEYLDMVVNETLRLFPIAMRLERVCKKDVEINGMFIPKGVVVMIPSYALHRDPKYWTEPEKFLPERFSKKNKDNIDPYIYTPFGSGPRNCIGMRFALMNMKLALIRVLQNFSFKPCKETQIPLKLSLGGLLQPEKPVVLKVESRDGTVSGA

[6] = biological target: Ephrin type-A receptor 4 (Mus musculus, UniProt Q03137); assay: EphA4 ligand-binding antagonists – biochemical, colorimetric, mouse EphA4, primary screen (AID 689); assay type: functional
Ephrin type-A receptor 4, sequence (Q03137 whole entry): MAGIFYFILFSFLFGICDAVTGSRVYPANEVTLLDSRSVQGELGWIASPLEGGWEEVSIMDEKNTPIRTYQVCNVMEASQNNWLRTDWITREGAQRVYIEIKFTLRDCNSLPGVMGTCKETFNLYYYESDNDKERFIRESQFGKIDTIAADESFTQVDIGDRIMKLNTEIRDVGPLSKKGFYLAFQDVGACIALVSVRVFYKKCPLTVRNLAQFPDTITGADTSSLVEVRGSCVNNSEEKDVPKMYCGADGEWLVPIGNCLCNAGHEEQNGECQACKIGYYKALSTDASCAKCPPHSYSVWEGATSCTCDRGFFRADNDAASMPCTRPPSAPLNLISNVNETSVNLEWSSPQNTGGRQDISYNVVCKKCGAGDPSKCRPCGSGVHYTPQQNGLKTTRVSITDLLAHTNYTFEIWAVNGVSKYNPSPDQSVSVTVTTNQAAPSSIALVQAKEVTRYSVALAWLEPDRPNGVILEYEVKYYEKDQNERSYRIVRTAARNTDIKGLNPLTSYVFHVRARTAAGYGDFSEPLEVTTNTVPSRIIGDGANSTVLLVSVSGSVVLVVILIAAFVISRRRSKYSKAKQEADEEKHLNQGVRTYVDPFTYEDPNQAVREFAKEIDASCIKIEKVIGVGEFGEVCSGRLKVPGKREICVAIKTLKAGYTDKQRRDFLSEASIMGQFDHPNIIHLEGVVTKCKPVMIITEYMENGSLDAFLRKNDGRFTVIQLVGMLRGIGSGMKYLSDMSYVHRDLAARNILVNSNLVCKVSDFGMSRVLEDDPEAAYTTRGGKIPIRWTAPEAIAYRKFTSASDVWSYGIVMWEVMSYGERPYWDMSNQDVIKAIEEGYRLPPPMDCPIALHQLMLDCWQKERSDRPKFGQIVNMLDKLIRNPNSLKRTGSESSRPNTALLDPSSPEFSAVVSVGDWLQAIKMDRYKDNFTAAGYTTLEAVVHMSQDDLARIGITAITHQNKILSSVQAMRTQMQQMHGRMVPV

[7] = biological target: Voltage-gated inwardly rectifying potassium channel KCNH2 (Homo sapiens, UniProt Q12809); assay: concentration-dependent hERG rescue from blockers – cell-based, thallium flux, dose response (AID 2121); assay type: ADME
[8] = test system: Vero; assay: Vero cell viability after compound exposure – synthesized analogs, set II, cytotoxicity control for West Nile virus antiviral project, SAR follow-up (AID 2402); assay type: functional; details: Chlorocebus sabaeus
[9] = biological target: Procathepsin L (Homo sapiens, UniProt P07711); assay: CTSL1 protease inhibition – biochemical, QFRET, 1536-well, counter-screen for M1/M17 aminopeptidase inhibitor project, dose response (AID 2214)
Procathepsin L, sequence (P07711 whole entry): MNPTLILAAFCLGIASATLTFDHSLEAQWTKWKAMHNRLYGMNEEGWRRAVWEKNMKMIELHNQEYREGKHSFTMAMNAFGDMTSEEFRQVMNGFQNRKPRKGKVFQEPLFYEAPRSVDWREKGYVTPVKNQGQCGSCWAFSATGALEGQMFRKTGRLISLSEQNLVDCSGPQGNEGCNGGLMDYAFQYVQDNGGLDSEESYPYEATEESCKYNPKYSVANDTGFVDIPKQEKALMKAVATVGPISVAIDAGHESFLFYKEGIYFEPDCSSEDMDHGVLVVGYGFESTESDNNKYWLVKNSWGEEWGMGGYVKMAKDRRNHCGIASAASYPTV

[10] = biological target: Peroxisome proliferator-activated receptor gamma/Nuclear receptor coactivator 3 (Homo sapiens, UniProt P37231); assay: TR-FRET dose response biochemical High Throughput Screening assay for agonists of the steroid receptor coactivator 3 (SRC-3) recruitment by the peroxisome proliferator-activated receptor gamma (PPAR gamma): non-selective agonists. [Related pubchem assays: 1301 (Confirmation screen.), 1048 (Primary screen.)]; assay type: functional
[11] = biological target: T1, Corticotropin-releasing factor receptor 2/Corticotropin-releasing factor-binding protein (Homo sapiens, UniProt P24387+Q13324); assay: Dose Response confirmation of uHTS hits for small molecule antagonists of the CRF-binding protein and CRF-R2 receptor complex.; assay type: functional; details: read-out: IC50_Mean
T1 sequence (Q13324 whole entry): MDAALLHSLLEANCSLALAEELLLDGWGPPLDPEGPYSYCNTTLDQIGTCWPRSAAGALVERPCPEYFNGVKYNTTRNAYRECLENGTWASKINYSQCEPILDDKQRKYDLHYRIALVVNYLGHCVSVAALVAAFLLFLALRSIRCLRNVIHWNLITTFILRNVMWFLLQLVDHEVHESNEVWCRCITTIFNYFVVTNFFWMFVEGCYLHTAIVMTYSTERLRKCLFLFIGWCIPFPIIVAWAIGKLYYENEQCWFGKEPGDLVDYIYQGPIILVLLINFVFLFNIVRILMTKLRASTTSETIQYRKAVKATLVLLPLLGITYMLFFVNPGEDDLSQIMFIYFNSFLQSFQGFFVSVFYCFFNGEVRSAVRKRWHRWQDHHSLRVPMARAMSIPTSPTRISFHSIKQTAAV
T1 sequence (P24387 whole entry): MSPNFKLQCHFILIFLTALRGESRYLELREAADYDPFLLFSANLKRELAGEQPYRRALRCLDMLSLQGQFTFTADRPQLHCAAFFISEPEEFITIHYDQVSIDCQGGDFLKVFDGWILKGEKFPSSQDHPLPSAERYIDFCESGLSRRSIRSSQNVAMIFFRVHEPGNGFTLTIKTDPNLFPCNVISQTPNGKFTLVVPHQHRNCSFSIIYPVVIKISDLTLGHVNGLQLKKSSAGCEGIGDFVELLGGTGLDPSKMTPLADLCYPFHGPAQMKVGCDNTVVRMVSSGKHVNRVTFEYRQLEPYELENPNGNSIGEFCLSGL

[12] = biological target: Peroxisome proliferator-activated receptor gamma/Nuclear receptor coactivator 2 (Homo sapiens, UniProt P37231); assay: (§1) TR-FRET dose response biochemical High Throughput Screening assay for agonists of the steroid receptor coactivator 2 (SRC-2) recruitment by the peroxisome proliferator-activated receptor gamma (PPAR gamma): non-selective agonists. [Related pubchem assays: 1297, 1032 ]; assay type: functional
[13] = biological target: T1, Corticotropin-releasing factor receptor 2/Corticotropin-releasing factor-binding protein; assay: activators of CRF receptor 2 with binding protein – uHTS hits, confirmation (AID 602473); assay type: functional; details: read-out: EC50_Mean
[14] = biological target: Peroxisome proliferator-activated receptor gamma/Nuclear receptor coactivator 1 (Homo sapiens, UniProt P37231); assay: as §1, with “1 (SRC-1)” for “2 (SRC-2)”, “assays (depositor defined):AID1300, AID1808, AID504735, AID631]” for “assays: 1297, 1032 ]”; assay type: protein assay
Peroxisome proliferator-activated receptor gamma/Nuclear receptor coactivator 1, sequence (P37231 whole entry): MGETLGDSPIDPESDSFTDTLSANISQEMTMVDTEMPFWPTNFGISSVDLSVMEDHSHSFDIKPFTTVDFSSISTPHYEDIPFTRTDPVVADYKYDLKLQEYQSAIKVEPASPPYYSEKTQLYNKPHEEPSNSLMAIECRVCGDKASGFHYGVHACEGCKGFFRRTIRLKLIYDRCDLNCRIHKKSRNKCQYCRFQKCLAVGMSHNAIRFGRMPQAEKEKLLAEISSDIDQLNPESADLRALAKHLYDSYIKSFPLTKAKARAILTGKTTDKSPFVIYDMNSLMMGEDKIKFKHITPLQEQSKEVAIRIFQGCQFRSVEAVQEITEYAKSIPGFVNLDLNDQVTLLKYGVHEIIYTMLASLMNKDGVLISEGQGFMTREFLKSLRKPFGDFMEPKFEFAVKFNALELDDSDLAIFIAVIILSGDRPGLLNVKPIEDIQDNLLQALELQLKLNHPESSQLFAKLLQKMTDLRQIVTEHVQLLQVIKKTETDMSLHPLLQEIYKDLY
Peroxisome proliferator-activated receptor gamma/Nuclear receptor coactivator 1, sequence (Q15788 whole entry, further chain): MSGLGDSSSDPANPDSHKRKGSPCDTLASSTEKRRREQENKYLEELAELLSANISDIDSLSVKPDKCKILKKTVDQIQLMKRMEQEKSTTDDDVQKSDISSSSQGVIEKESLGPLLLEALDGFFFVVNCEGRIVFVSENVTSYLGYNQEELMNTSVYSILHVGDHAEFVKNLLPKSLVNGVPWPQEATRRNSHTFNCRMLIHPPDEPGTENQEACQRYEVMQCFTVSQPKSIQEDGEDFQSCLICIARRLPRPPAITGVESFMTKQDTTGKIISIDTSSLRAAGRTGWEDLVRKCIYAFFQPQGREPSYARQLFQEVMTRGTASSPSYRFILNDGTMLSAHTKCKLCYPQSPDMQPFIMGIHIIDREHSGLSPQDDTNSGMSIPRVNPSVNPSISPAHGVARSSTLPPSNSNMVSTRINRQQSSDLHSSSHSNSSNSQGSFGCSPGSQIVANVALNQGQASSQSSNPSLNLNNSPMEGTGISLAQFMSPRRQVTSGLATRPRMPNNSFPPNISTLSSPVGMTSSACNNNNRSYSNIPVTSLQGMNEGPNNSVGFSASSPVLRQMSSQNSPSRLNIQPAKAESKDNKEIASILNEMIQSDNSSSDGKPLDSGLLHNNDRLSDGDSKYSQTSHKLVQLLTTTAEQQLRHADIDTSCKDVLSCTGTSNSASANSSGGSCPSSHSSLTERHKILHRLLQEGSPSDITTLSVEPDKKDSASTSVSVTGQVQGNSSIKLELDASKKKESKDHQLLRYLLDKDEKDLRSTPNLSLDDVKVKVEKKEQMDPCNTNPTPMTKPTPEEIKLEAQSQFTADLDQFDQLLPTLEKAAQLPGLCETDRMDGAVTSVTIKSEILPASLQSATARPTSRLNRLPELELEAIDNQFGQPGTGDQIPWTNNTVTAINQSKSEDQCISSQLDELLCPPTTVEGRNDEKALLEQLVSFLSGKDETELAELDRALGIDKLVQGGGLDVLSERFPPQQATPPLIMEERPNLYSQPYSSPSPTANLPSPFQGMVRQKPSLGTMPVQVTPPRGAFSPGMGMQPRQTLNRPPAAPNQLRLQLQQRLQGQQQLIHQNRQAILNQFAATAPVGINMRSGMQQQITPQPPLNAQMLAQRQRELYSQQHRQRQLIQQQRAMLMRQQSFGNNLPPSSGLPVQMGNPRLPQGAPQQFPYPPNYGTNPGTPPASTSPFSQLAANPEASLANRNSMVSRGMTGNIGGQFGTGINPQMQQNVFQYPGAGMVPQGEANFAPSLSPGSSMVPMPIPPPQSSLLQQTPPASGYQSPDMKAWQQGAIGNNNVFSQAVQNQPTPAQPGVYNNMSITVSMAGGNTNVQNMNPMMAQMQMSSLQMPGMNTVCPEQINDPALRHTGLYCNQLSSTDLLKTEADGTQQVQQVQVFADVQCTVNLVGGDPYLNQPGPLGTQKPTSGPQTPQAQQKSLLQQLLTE

[15] = biological target: Aspartyl aminopeptidase (Plasmodium falciparum 3D7, UniProt Q8I2J3); assay: Counterscreen for inhibitors of M1 and M17 aminopeptidases: QFRET-based biochemical high throughput dose response assay for inhibitors of the Plasmodium falciparum M18 Aspartyl Aminopeptidase (PFM18AAP). [Related PubChem assays: 1619 (Screening assay (M17LAP inhibitors).), 1445 (Screening assay (M1AAP inhibitors).)]
[16] = biological target: T2, Aminopeptidase N (Plasmodium falciparum FcB1/Columbia, UniProt O96935); assay: malaria alanyl aminopeptidase activity blockers – biochemical, fluorogenic H-Leu-NHMec substrate, 1536-well (AID 1445); parameters: species or system Plasmodium falciparum 3D7, 3D7
T2 sequence (O96935 whole entry): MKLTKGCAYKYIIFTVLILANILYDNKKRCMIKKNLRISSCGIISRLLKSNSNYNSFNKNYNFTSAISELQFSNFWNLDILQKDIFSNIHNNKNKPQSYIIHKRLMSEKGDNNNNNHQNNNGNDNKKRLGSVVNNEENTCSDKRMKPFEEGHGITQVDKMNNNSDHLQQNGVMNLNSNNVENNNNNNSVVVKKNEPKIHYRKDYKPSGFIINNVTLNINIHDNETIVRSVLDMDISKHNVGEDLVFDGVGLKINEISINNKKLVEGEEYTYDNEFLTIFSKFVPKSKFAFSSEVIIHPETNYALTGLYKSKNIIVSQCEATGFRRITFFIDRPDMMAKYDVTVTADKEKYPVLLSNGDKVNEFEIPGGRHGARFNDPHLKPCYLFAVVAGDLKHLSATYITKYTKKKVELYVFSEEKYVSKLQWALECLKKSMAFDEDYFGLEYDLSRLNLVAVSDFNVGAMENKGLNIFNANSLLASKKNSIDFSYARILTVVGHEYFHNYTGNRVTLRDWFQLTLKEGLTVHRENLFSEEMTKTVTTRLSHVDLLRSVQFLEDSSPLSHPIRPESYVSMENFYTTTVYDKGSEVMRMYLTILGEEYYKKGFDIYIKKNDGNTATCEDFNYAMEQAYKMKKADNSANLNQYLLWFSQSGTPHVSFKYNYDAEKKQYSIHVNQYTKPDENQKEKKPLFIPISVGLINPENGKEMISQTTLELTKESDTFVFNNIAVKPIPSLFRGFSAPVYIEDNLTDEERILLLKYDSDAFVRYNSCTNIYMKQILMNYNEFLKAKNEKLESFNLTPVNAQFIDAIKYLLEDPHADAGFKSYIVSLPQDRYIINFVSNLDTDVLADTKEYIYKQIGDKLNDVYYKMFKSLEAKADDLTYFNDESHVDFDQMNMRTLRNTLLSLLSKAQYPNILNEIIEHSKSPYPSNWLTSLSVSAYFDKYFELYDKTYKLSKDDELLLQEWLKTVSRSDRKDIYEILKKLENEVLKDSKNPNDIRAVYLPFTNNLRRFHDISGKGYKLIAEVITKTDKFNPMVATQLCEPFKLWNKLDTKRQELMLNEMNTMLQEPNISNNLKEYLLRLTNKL

[17] = biological target: T3, Histone-lysine N-methyltransferase NSD2 (Homo sapiens, UniProt O96028); assay type: biochemical
T3 sequence (O96028 whole entry): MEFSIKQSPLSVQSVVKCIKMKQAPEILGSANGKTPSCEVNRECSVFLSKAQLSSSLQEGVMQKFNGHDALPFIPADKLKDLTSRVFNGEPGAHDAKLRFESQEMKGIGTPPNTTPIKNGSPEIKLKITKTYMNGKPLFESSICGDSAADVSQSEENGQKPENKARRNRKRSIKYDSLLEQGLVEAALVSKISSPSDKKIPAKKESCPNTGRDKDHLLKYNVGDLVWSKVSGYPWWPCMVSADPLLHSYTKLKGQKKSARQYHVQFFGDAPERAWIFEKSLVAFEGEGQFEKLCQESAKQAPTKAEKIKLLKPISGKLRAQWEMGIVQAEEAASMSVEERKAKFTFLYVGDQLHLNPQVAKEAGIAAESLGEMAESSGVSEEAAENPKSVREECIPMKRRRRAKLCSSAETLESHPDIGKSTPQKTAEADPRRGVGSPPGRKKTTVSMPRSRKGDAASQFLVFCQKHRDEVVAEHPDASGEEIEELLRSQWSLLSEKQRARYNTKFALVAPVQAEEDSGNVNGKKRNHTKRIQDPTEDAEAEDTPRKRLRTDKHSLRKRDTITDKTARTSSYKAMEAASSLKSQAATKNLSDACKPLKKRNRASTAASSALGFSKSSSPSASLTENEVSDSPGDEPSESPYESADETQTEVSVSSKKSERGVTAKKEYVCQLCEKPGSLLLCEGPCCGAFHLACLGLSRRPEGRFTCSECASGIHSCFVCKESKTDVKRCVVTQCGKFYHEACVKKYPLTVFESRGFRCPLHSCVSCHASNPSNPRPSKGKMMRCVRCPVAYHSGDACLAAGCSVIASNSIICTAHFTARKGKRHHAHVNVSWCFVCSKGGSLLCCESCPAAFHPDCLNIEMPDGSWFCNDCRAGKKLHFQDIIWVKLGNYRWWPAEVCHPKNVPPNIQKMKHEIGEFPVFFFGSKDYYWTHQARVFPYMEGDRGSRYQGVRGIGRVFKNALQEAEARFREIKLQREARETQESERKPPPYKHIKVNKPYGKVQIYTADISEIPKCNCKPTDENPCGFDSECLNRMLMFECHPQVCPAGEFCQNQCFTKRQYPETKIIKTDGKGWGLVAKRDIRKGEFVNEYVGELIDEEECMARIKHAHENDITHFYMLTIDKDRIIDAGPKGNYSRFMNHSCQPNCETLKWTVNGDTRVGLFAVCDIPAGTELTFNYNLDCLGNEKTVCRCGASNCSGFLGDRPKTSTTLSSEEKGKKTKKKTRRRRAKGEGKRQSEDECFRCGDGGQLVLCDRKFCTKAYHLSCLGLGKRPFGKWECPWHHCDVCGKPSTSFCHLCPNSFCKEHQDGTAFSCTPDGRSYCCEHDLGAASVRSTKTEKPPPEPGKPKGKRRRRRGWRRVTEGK

[18] = biological target: T4, Mannose-6-phosphate isomerase (Homo sapiens, UniProt P34949); assay: MPI inhibition at elevated mannose 6-phosphate – biochemical, fluorescence intensity, high mannose 6-phosphate, primary screen (AID 1220)
T4 sequence (P34949 whole entry): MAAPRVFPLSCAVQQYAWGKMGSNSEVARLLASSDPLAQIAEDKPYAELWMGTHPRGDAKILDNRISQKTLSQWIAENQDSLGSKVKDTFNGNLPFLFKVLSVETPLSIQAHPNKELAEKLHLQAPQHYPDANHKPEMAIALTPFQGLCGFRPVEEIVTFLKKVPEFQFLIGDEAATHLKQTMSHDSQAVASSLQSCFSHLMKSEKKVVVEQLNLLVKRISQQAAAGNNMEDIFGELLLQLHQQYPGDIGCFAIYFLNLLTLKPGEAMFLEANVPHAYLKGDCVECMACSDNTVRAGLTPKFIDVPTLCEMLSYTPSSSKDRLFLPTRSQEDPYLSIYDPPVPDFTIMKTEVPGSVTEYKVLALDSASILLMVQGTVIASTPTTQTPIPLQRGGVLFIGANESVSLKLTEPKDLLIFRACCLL

[19] = fluconazole-exposed Candida albicans growth modulators – fluorescence, retest, confirmation (AID 2467); assay type: functional, cell-based
[20] = NIH-3T3 fibroblast cytotoxicity, dose response, cytotoxicity control, cell-based, fluorescence, Alamar Blue, secondary assay (AID 2327); assay type: functional;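 note: NIH-3T3 mouse fibroblasts cultured with fluconazole at 8 µg/mL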
[21] = Luminescent dose response cell-based high throughput screening assay for inhibitors of the Janus kinase 2 mutant JAK2V617F. [Related pubchem assays: 1446 (Primary screen.), 1521 (Confirmation assay.), 1486 (Counter screen.)]; assay type: functional
[22] = biological target: Induced myeloid leukemia cell differentiation protein Mcl-1 (Homo sapiens, UniProt Q07820); assay type: functional
Induced myeloid leukemia cell differentiation protein Mcl-1, sequence (Q07820 whole entry): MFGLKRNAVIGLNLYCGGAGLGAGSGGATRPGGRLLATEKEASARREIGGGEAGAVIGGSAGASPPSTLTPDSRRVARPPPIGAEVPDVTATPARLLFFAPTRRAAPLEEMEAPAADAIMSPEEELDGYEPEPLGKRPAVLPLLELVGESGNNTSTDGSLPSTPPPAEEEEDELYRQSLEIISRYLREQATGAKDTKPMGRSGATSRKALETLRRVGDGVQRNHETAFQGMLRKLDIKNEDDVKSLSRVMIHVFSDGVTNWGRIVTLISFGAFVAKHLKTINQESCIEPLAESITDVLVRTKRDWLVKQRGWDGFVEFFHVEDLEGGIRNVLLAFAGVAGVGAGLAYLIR

CC(C)(C)c1nc2sc3c(c2c(=O)o1)CCCC3
IC50 [1]: > 100 µM (active)

COc1ccc(-c2csc(N3C(=O)CNC3=S)n2)cc1
IC50 [2]: > 55.7 µM (not active)

O=C(NCc1ccco1)c1ccccc1-n1sc2ccccc2c1=O
IC50 [3]: 38.7 µM (active)

CCOC(=O)c1c(N=C(S)Nc2ccccc2)sc2c1CCN(CCc1ccccc1)C2
AC50 [4]: 22.4 µM (inconclusive) | AC50 [5]: 22.4 µM (inconclusive) | IC50 [6]: 14.7 µM (active)

Cc1onc(-c2ccccc2)c1C(=O)NC(=S)Nc1sc2c(c1C#N)CCC(C)C2 (configuration not stated)
EC50 [7]: 0.86 µM (active)

OC1c2cc(Br)ccc2N=C2CCCCN21 (configuration not stated)
CC50 [8]: > 200 µM (active)

O=C1Nc2ccccc2/C1=C1/SC(=S)N(NC(=O)c2cccc(O)c2)C1=O
IC50 [9]: 31.8 µM (not active) | EC50 [10]: > 79.4 µM (not active) | IC50 [11]: < 0.368 µM (active) | EC50 [12]: 41 µM (not active) | EC50 [13]: > 53 µM (inactive) | EC50 [14]: > 79.4 µM (inactive) | IC50 [15]: 39.5 µM (not active) | IC50 [16]: 4.08 µM (active)

Cc1c(Cc2ccccc2)c(=O)oc2c(O)c(O)ccc12
AC50 [17]: > 20 µM (inactive) | IC50 [18]: 29.6 µM (active) | EC50 [19]: 2.73 µM (active) | EC50 [20]: 18.7 µM (active) | IC50 [21]: 2.67 µM (active) | IC50 [22]: 11.7 µM (not active)
